Paper PMC7851395 (British Journal of Cancer, 2020)

Assays:
[1] = system: P-CDK9, CDK9, P-STAT3 and S2 RNAPII; experiment: Western blot of CDK9/STAT3 pathway proteins; type: cell-based, human; settings: H460 and PC-9 cells, 12 h; acetyl-bufalin 25-200 nM, SNS-032 200 nM
Protocol: (§1) Tissue proteins were extracted with tissue protein lysate buffer. Cells were grown to different densities and extracted with cell protein lysate buffer. The protein was mixed with loading buffer and boiled for 10 min at 100 °C, then loaded and separated by 10% or 12% sodium dodecyl sulfate-polyacrylamide gel (SDS-PAGE) and then transferred onto a PVDF membrane blocking with 5% skim milk. The blots were incubated overnight with specific primary antibodies at 4 °C. On the second day, after washing with TBST (a mixture of tris-buffered saline (TBS) and Tween 20) three times, the […] membranes were incubated with horseradish peroxidase-conjugated secondary antibodies for 1 h. The immunoreactive bands were visualised with enhanced chemiluminescence reagent.

H460 cells = experiment: MTT cytotoxicity assay, H460 cells; type: cell-based; settings: Homo sapiens, NCI-H460; H460 cells, 48 h, MTT; read-out: IC50
Protocol: (§2) The cytotoxicity and viability of human NSCLC cells and normal cells were determined by MTT assay. MTT assay was performed as described previously.[22] MTT assay was used to determine the cell cytotoxicity and viability in human NSCLC cells. Cells (5 × 10^3 cells/well) were plated in 96-well plates and attached overnight. After the proper treatment, the MTT solution was added at 25 µL/well and incubated at 37 °C for 4 h. The formazan crystals were dissolved in 150 µL of DMSO, and the optical density (OD) was measured using a Microplate Reader at 490 nm. The cell viability was calculated by the following formula: viability = (average OD values of treatment wells/average OD values of vehicle control wells) × 100%. And half-maximal inhibitory concentration (IC50) values were determined by GraphPad Pro Prism 7.0.

A549 cells = experiment: MTT cytotoxicity assay, A549 cells; type: cell-based; settings: Homo sapiens; A549 cells, 48 h, MTT; read-out: IC50
Protocol: as §2

[2] = system: patient-derived human NSCLC xenografts; experiment: Patient-derived NSCLC xenograft (PDX) model; type: in vivo, mice; settings: for average tumour volume: 14 days, vehicle 931.90 mm^3
Protocol: For the patient-derived human NSCLC xenografts (PDXs) animal model, four pairs of lung cancer samples were obtained from patients who had undergone surgical treatment of lung cancer in the First Affiliated Hospital of Wenzhou Medical University. Fresh tumour tissue was sterilely incised into ~3-mm^3 pieces and subcutaneously injected into immunodeficient NOD/SCID mice within 30 min. The remaining tumour tissues were stored at −80 °C. When the tumours have successfully engrafted, tumour samples were removed and passaged into the third generation of nude mice for the following studies. All 18 mice were allocated into three groups (n = 6) and received i.p. injection of acetyl-bufalin (1 mg/kg/2 days and 2 mg/kg/2 days) as compared with mice injected with PBS (vehicle group) every other day. Tumour volume was measured as V = (L × W × W)/2, in which L and W represent the length and width of tumour. After 14 days, all the mice were killed by cervical dislocation. The tumours, hearts, livers, kidneys and lungs were removed for use in the histology and western blot analysis.

H460 xenograft = type: in vivo, BALB/c nude mice; settings: 2 mg/kg i.p. every other day
Protocol: All animal procedures were done accordingly with the Institutional laboratory animal research guidelines and were approved by Wenzhou Medical University Animal Policy and Welfare Committee. Female athymic BALB/c nude mice (5–6 weeks old) and immune-defective non-obese […] diabetic severe combined immunodeficiency (NOD-SCID) mice (6–8 weeks old) were purchased from the Vital River Experimental Animal Center (Beijing, China). All the mice were housed under 12 h light–dark cycles at 25 °C and free for water and diet. For the xenograft model, the H460 cells (5 × 10^6 cells were mixed with an equal volume of PBS and Matrigel in 100 μL) were implanted on the hind flank of nude mice. Once tumour volumes reached ~50 mm^3, 24 mice were divided into four experimental groups (six mice per group, no differences in mean body weights or tumour volumes between the groups) and intraperitoneal injection with 2 mg/kg SNS-032 (a recognised CDK9 inhibitor), bufalin and acetyl-bufalin every other day. Tumour volume was measured as V = (L × W × W)/2, in which L and W represent the length and width of tumour. Animals were killed by cervical dislocation once the tumour volume reached 1000 mm^3. The tumours, hearts, livers, kidneys and lungs were removed for use in the histology and western blot analysis.

P-STAT3 = experiment: Western blot of STAT3 phosphorylation; type: cell-based, human; settings: H460, A549 and PC-9 cells, 12 h, concentration-dependently
Protocol: as §1

CC(=O)OC1CCC2(C)C(CCC3C2CCC2(C)C(c4ccc(=O)oc4)CCC32O)C1 (centres unmarked) [acetyl-bufalin]
P-CDK9, CDK9, P-STAT3 and S2 RNAPII expressions [1]: significantly dose-dependently decreased
IC50 (H460 cells): 27.8 nM
IC50 (A549 cells): 28.1 nM
average tumour volume ([2]; 1 mg/kg per 2 days i.p.): 544.43 mm^3
average tumour volume ([2]; 2 mg/kg per 2 days i.p.): 256.29 mm^3
body weight of the mice ([2]; 1 and 2 mg/kg per 2 days i.p.): stable
gross toxicities on heart, liver, kidney and lung ([2]; H&E staining, compared with vehicle): no gross toxicities
gross toxicities on hearts, livers, kidneys or lungs (H460 xenograft; H&E staining): no gross toxicities
tumour growth (weight and volume) (H460 xenograft; compared with vehicle): significantly inhibited tumour growth
comparison of inhibitory effect between treatments (H460 xenograft; versus SNS-032 and bufalin): best inhibitory effect
P-STAT3 protein levels (P-STAT3): reduced
